Experimental data taken from patent US9174977B2, “2-azabicyclo[4.1.0]heptane derivatives as orexin receptor antagonists for the treatment of certain disorders” (Rottapharm Biotech S.r.l., priority 2012, dated 2015).

What was measured:
human OX2 receptors = biological target: T1, human OX2 receptors (Homo sapiens, UniProt O43614); assay: antagonistic activity against human OX2 receptor, calcium fluorimetry (Fluo-4NW) in transfected HEK-293 cells; format: cell-based; conditions: HEK-293 cells transfected with human recombinant OX2, activated with orexin-B 10 nM; pKb = co-logarithm of apparent dissociation constant (modified Cheng Prusoff)
T1 construct: expressed in transfected cells; host or cells: HEK-293 cells
T1 sequence (O43614 1-444): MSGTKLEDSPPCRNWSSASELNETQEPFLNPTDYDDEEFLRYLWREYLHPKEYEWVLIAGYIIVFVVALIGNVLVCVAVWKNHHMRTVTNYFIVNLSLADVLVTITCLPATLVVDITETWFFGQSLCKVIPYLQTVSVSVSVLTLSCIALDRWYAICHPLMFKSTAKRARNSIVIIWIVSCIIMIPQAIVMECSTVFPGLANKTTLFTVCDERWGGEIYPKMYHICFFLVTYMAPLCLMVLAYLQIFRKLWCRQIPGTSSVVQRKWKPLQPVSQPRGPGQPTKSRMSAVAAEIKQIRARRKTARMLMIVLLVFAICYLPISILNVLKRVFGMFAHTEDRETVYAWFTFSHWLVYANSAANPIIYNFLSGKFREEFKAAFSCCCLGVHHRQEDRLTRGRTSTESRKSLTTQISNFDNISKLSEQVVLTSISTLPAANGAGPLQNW
Description: (§1) In a typical experiment, the antagonistic activity against human OX1 and OX2 receptors is determined by using CHO e HEK-293 cells transfected with human recombinant OX1 and OX2 receptors respectively, seeded at density of 2 and 3×10^4 cells/well respectively in a 96 fluorimetry well plate. Thus the plate was loaded with the calcium dye (Fluo-4NW/probenecid in HBSS, Hepes 20 mM, pH 7,4; Invitrogen) at 37° C. for 60 min. Afterward the temperature was equilibrated at 22° C. for 15 min and the [Ca2+]i measured directly on the plate by using a fluorescent plate reader (CellLux Perkin Elmer).
(§2) Invention compounds were dissolved in DMSO, diluted in HBSS (DMSO, 0.3% final) and added to the wells. After 5 min CHO cells were activated with orexin-A, 3 nM while HEK-293 cells were activated with orexin-B, 10 nM.
(§3) The compounds, dissolved in DMSO and diluted in the medium (DMSO, 0.3% final), have been analysed in the 1 nM-1 μM concentration range (every concentration in duplicate). The antagonistic activity has been expressed as pKb (co-logarithm of the apparent dissociation constant calculated by using the modified Cheng Prusoff equation).
(§4) The results are expressed as percent of control specific […] response ((measured specific response/control specific agonist response)×100) obtained in the presence of the test compounds.
(§5) The IC50 values (concentration causing a half-maximal inhibition of the control specific agonist response) were determinated by non-linear regression analysis of the concentration curves generated with mean replicate values using hill equation curve fitting. The IC50 values are obtained by the arithmetical mean of at least two experiments.

human OX1 receptors = biological target: T2, human OX1 receptors (Homo sapiens, UniProt O43613); assay: antagonistic activity against human OX1 receptor, calcium fluorimetry (Fluo-4NW) in transfected CHO cells; format: cell-based; conditions: CHO cells transfected with human recombinant OX1, activated with orexin-A 3 nM; pKb = co-logarithm of apparent dissociation constant (modified Cheng Prusoff)
T2 construct: expressed in transfected cells; host or cells: CHO cells
T2 sequence (O43613 1-425): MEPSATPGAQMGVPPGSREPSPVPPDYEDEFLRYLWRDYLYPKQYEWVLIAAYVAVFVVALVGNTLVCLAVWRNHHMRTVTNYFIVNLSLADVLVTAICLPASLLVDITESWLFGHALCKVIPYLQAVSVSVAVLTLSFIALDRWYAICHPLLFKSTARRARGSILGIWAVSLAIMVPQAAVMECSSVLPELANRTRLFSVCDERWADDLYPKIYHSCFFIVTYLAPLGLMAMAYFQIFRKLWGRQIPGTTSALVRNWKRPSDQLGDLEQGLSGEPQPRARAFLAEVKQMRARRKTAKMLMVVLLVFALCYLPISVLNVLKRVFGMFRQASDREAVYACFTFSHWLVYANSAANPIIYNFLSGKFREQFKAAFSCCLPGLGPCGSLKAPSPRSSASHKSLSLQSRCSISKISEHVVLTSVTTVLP
Description: as §1, §2, §3, §4, §5

Kb (human OX2 receptors) [nM]	Kb (human OX1 receptors) [nM]	Structure (SMILES)
39.8	2.51	Cc1ccc(-c2ncccn2)c(C(=O)N2[C@H](CNc3ccc(C(F)(F)F)cn3)CC[C@@H]3C[C@@H]32)c1 [Compound 4a, (5-methyl-2-(pyrimidin-2-yl)phenyl)((1S,3S,6R)-3-(((5-(trifluoromethyl)pyridin-2-yl)amino)methyl)-2-azabicyclo[4.1.0]heptan-2-yl)methanone]
–	79.4	N#Cc1ccc(-c2ncccn2)c(C(=O)N2[C@H](COc3ccc(F)cn3)CC[C@H]3C[C@H]32)c1 [Compound 3b, 3-((1R,3S,6S)-3-(((5-fluoropyridin-2-yl)oxy)methyl)-2-azabicyclo[4.1.0]heptane-2-carbonyl)-4-(pyrimidin-2-yl)benzonitrile]
10	7.94	N#Cc1ccc(-c2ncccn2)c(C(=O)N2[C@H](CNc3cc(C(F)(F)F)ccn3)CC[C@H]3C[C@H]32)c1 [Compound 1h, 4-(pyrimidin-2-yl)-3-((1R,3S,6S)-3-(((4-(trifluoromethyl)pyridin-2-yl)amino)methyl)-2-azabicyclo[4.1.0]heptane-2-carbonyl)benzonitrile]
3.98	1.26	Cc1ccc(-c2ncccn2)c(C(=O)N2[C@H](CNc3ccc(C(F)(F)F)cn3)CC[C@H]3C[C@H]32)c1 [Compound 1d, (5-methyl-2-(pyrimidin-2-yl)phenyl)((1R,3S,6S)-3-(((5-(trifluoromethyl)pyridin-2-yl)amino)methyl)-2-azabicyclo[4.1.0]heptan-2-yl)methanone]
10	5.01	N#Cc1ccc(-c2ncccn2)c(C(=O)N2[C@H](CNc3ccc(C(F)(F)F)cn3)CC[C@H]3C[C@H]32)c1 [Compound 1b, 4-(pyrimidin-2-yl)-3-((1R,3S,6S)-3-(((5-(trifluoromethyl)pyridin-2-yl)amino)methyl)-2-azabicyclo[4.1.0]heptane-2-carbonyl)benzonitrile]
–	25.1	Cc1ccc(-c2ncccn2)c(C(=O)N2[C@H](CNc3nccc(C(F)(F)F)n3)CC[C@@H]3C[C@@H]32)c1 [Compound 4i, (5-methyl-2-(pyrimidin-2-yl)phenyl)((1S,3S,6R)-3-(((4-(trifluoromethyl)pyrimidin-2-yl)amino)methyl)-2-azabicyclo[4.1.0]heptan-2-yl)methanone]
63.1	12.6	O=C(c1cc(Cl)ccc1-c1ncccn1)N1[C@H](COc2ccc(F)cn2)CC[C@H]2C[C@H]21 [Compound 3c, (5-chloro-2-(pyrimidin-2-yl)phenyl)((1R,3S,6S)-3-(((5-fluoropyridin-2-yl)oxy)methyl)-2-azabicyclo[4.1.0]heptan-2-yl)methanone]
–	31.6	O=C(c1cc(Cl)ccc1-c1ncccn1)N1[C@H](CNc2nccc(C(F)(F)F)n2)CC[C@@H]2C[C@@H]21 [Compound 4h, (5-chloro-2-(pyrimidin-2-yl)phenyl)((1S,3S,6R)-3-(((4-(trifluoromethyl)pyrimidin-2-yl)amino)methyl)-2-azabicyclo[4.1.0]heptan-2-yl)methanone]
15.8	1	O=C(c1cc(Cl)ccc1-c1ncccn1)N1[C@H](COc2ccc(Cl)cn2)CC[C@H]2C[C@H]21 [Compound 3e, (5-chloro-2-(pyrimidin-2-yl)phenyl)((1R,3S,6S)-3-(((5-chloropyridin-2-yl)oxy)methyl)-2-azabicyclo[4.1.0]heptan-2-yl)methanone]
3.98	1.58	O=C(c1cc(Cl)ccc1-c1ncccn1)N1[C@H](CNc2cc(C(F)(F)F)ccn2)CC[C@H]2C[C@H]21 [Compound 1a, (5-chloro-2-(pyrimidin-2-yl)phenyl)((1R,3S,6S)-3-(((4-(trifluoromethyl)pyridin-2-yl)amino)methyl)-2-azabicyclo[4.1.0]heptan-2-yl)methanone]
39.8	6.31	Cc1ccc(-c2ncccn2)c(C(=O)N2[C@H](CNc3cc(C(F)(F)F)ccn3)CC[C@@H]3C[C@@H]32)c1 [Compound 4f, (5-methyl-2-(pyrimidin-2-yl)phenyl)((1S,3S,6R)-3-(((4-(trifluoromethyl)pyridin-2-yl)amino)methyl)-2-azabicyclo[4.1.0]heptan-2-yl)methanone]
12.6	0.794	Cc1ccc(-c2ncccn2)c(C(=O)N2[C@H](CNc3ccc(Cl)cn3)CC[C@H]3C[C@H]32)c1 [Compound 1c]
12.6	2.51	O=C(c1cc(Cl)ccc1-c1ncccn1)N1[C@H](CNc2ccc(C(F)(F)F)cn2)CC[C@H]2C[C@H]21 [Compound 1e, (5-chloro-2-(pyrimidin-2-yl)phenyl)((1R,3S,6S)-3-(((5-(trifluoromethyl)pyridin-2-yl)amino)methyl)-2-azabicyclo[4.1.0]heptan-2-yl)methanone]
15.8	1.26	Cc1nc(C(=O)N2[C@H](CNc3ccc(Cl)cn3)CC[C@H]3C[C@H]32)c(-c2ccccc2)s1 [Compound 2b, ((1R,3S,6S)-3-(((5-chloropyridin-2-yl)amino)methyl)-2-azabicyclo[4.1.0]heptan-2-yl)(2-methyl-5-phenylthiazol-4-yl)methanone]
15.8	0.794	O=C(c1cc(Cl)ccc1-c1ncccn1)N1[C@H](CNc2ccc(Cl)cn2)CC[C@H]2C[C@H]21 [Compound 1f, (5-chloro-2-(pyrimidin-2-yl)phenyl)((1R,3S,6S)-3-(((5-chloropyridin-2-yl)amino)methyl)-2-azabicyclo[4.1.0]heptan-2-yl)methanone]
50.1	7.94	O=C(c1cc(Cl)ccc1-c1ncccn1)N1[C@H](CNc2cc(C(F)(F)F)ccn2)CC[C@@H]2C[C@@H]21 [Compound 4d, (5-chloro-2-(pyrimidin-2-yl)phenyl)((1S,3S,6R)-3-(((4-(trifluoromethyl)pyridin-2-yl)amino)methyl)-2-azabicyclo[4.1.0]heptan-2-yl)methanone]
63.1	1.26	N#Cc1ccc(-c2ncccn2)c(C(=O)N2[C@H](COc3ccc(Cl)cn3)CC[C@H]3C[C@H]32)c1 [Compound 3a, 3-((1R,3S,6S)-3-(((5-chloropyridin-2-yl)oxy)methyl)-2-azabicyclo[4.1.0]heptane-2-carbonyl)-4-(pyrimidin-2-yl)benzonitrile]
79.4	6.31	N#Cc1ccc(-c2ncccn2)c(C(=O)N2[C@H](CNc3ccc(C(F)(F)F)cn3)CC[C@@H]3C[C@@H]32)c1 [Compound 4c, 4-(pyrimidin-2-yl)-3-((1S,3S,6R)-3-(((5-(trifluoromethyl)pyridin-2-yl)amino)methyl)-2-azabicyclo[4.1.0]heptane-2-carbonyl)benzonitrile]
5.01	2.51	Cc1ccc(-c2ncccn2)c(C(=O)N2[C@H](CNc3nccc(C(F)(F)F)n3)CC[C@H]3C[C@H]32)c1 [Compound 1k, (5-methyl-2-(pyrimidin-2-yl)phenyl)((1R,3S,6S)-3-(((4-(trifluoromethyl)pyrimidin-2-yl)amino)methyl)-2-azabicyclo[4.1.0]heptan-2-yl)methanone]
–	3.98	O=C(c1cc(Cl)ccc1-c1ncccn1)N1[C@H](CNc2ccc(Cl)cn2)CC[C@@H]2C[C@@H]21 [Compound 4e, (5-chloro-2-(pyrimidin-2-yl)phenyl)((1S,3S,6R)-3-(((5-chloropyridin-2-yl)amino)methyl)-2-azabicyclo[4.1.0]heptan-2-yl)methanone]
–	1.58	Cc1ccc(-c2ncccn2)c(C(=O)N2[C@H](CNc3ccc(Cl)cn3)CC[C@@H]3C[C@@H]32)c1 [Compound 4g, ((1S,3S,6R)-3-(((5-chloropyridin-2-yl)amino)methyl)-2-azabicyclo[4.1.0]heptan-2-yl)(5-methyl-2-(pyrimidin-2-yl)phenyl)methanone]
